Eleven molecules from PubChem BioAssay (NCI) can be followed below.

Several values for one entry are separate records, joined by “and”; a condition that tells them apart may be missing. Equal entries are not always repeated.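 Briefly, cells in 96-well plates were exposed to five compound concentrations for 48 h, and endpoints were estimated by linear interpolation. At the GI50, growth is halved. The concentration for full growth arrest is given as TGI.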

Test systems include A498 renal; ACHN renal; HCT-116 colon; MDA-MB-435; OVCAR-5 ovarian; SNB-19 CNS; SW-620 colon; U251 CNS.
Common to all, as to assay: NCI-60 cell line screen, 48 h

For `CC(C)(C)c1ccc(Oc2nccc(-c3c(-c4ccc(F)cc4)ncn3C3CCNCC3)n2)cc1`, the GI50 with A498 renal is 3.89 µM; with ACHN renal, 3.49 µM; in the assay on HCT-116 colon it was 3.58 µM; with MDA-MB-435, 3.53 µM; in the assay on OVCAR-5 ovarian, 4.26 µM; in the assay on SNB-19 CNS, 3.73 µM. Further, the GI50 is 3.96 µM in the assay with SW-620 colon and 3.23 µM in the assay on U251 CNS. The TGI in the assay on A498 renal was 7.49 µM; in the assay on ACHN renal it was 6.78 µM; in the assay on HCT-116 colon, 7.07 µM; with MDA-MB-435, 7.04 µM; with OVCAR-5 ovarian it was 7.76 µM; in the assay with SNB-19 CNS it was 7.42 µM. In addition, the TGI in the assay with SW-620 colon came to 7.82 µM; in the assay with U251 CNS, 6.49 µM.

Take `C[C@H]1[C@H](C)CC[C@]2(CO)CC[C@]3(C)C(=CC[C@@H]4[C@@]5(C)CCCNC(C)(C)[C@@H]5CC[C@]43C)[C@H]12`: the GI50 was 1.63 µM in the assay with A498 renal; 1.69 µM with ACHN renal; 1.49 µM in the assay on HCT-116 colon; 1.59 µM in the assay with MDA-MB-435; 1.69 µM with OVCAR-5 ovarian; 1.86 µM in the assay on SNB-19 CNS. For the same molecule, the GI50 in the assay on SW-620 colon is 1.79 µM; in the assay with U251 CNS, 1.67 µM. The TGI with A498 renal was found to be 3.29 µM; with ACHN renal, 3.06 µM; with HCT-116 colon it was 2.81 µM; in the assay with MDA-MB-435, 3.21 µM; in the assay with OVCAR-5 ovarian it was 3.18 µM; in the assay on SNB-19 CNS, 3.43 µM. Further, the results for the TGI with SW-620 colon and in the assay with U251 CNS were 3.54 µM and 3.15 µM, respectively.

For `O=C(O)C(/C=C/c1ccccc1)c1ccccc1` (configuration not stated), the TGI in the assay on A498 renal, in the assay on ACHN renal, in the assay with HCT-116 colon, in the assay on OVCAR-5 ovarian, in the assay with SNB-19 CNS and with SW-620 colon was over 100 µM throughout. This molecule came in with a TGI with U251 CNS of over 100 µM.

For the molecule `COc1ccc(-c2cn(-c3cc(OC)c(OC)c(OC)c3)c(SCc3ccccc3)n2)cc1OC`, the GI50 in the assay on A498 renal, in the assay on ACHN renal, in the assay on HCT-116 colon, with MDA-MB-435, in the assay on OVCAR-5 ovarian and in the assay on SNB-19 CNS was over 100 µM throughout. Further, the GI50 in the assay with SW-620 colon and in the assay with U251 CNS was over 100 µM in each case. The TGI with A498 renal, in the assay with ACHN renal, in the assay with HCT-116 colon, in the assay with MDA-MB-435, in the assay with OVCAR-5 ovarian and with SNB-19 CNS was over 100 µM in each case. The TGI in the assay with SW-620 colon and in the assay with U251 CNS was over 100 µM in each case.

For `COc1cc2c(cc1C)NC(=O)/C2=C/c1ccccn1`, the GI50 with A498 renal is 3.61 µM; with ACHN renal, 2.48 µM; in the assay on HCT-116 colon, 2.53 µM; in the assay with MDA-MB-435, 3.77 µM; in the assay on OVCAR-5 ovarian, 3.46 µM; in the assay with SNB-19 CNS, 4.07 µM. Also, the GI50 was 6.91 µM in the assay with SW-620 colon and 2.92 µM in the assay on U251 CNS. Further, the TGI is 8.25 µM in the assay with A498 renal; 35.6 µM with ACHN renal; over 100 µM in the assay with HCT-116 colon; over 100 µM in the assay with MDA-MB-435; 43.9 µM in the assay with OVCAR-5 ovarian; over 100 µM in the assay on SNB-19 CNS. For the same molecule, the TGI in the assay with SW-620 colon and in the assay on U251 CNS was over 100 µM throughout.

Take `COc1ccc(-c2nc(-c3nc4ccc(OC)cc4[nH]3)c3ccccn23)cc1`: the GI50 with A498 renal is 4.28 µM; with ACHN renal, 3.57 µM; in the assay with HCT-116 colon, 3.63 µM; with MDA-MB-435, 3.14 µM; with OVCAR-5 ovarian, 11.4 µM; with SNB-19 CNS, 5.26 µM. In addition, the GI50 was 4.26 µM in the assay with SW-620 colon and 4.42 µM with U251 CNS. In addition, the TGI is over 100 µM in the assay with A498 renal; 36.6 µM in the assay on ACHN renal; 13.1 µM with HCT-116 colon; over 100 µM in the assay on MDA-MB-435; over 100 µM with OVCAR-5 ovarian; over 100 µM with SNB-19 CNS. Also, the TGI in the assay with SW-620 colon and in the assay on U251 CNS was over 100 µM throughout.

Regarding `COc1cc(C(=O)O[C@H](C(=O)NCCCCCNC(=O)[C@@H](OC(=O)c2cc(OC)cc3c(C)cccc23)[C@]2(C)CO2)[C@]2(C)CO2)c2cccc(C)c2c1`, the GI50 is 1.33 µM with A498 renal; under 0.0143 µM with ACHN renal; 0.884 µM with HCT-116 colon; 0.016 µM with MDA-MB-435; 1.52 µM with OVCAR-5 ovarian; 0.93 µM in the assay with SNB-19 CNS. The GI50 was under 0.0149 µM in the assay with SW-620 colon and under 0.01 µM in the assay on U251 CNS. Further, the TGI is 5.25 µM with A498 renal; under 0.0338 µM in the assay with ACHN renal; 3.68 µM in the assay with HCT-116 colon; 0.0913 µM in the assay on MDA-MB-435; 5.61 µM in the assay on OVCAR-5 ovarian; over 20.4 µM in the assay on SNB-19 CNS. Further, the figures for the TGI with SW-620 colon and with U251 CNS were over 100 µM and 0.3 µM, respectively.

For `Cc1ccc(S(=O)(=O)N/N=C/c2c(O)ccc3ccccc23)cc1`, the TGI was 44.2 µM in the assay on A498 renal; over 100 µM in the assay with ACHN renal; 45.6 µM in the assay with HCT-116 colon; 55.3 µM with MDA-MB-435; 88.2 µM in the assay with OVCAR-5 ovarian; over 100 µM with SNB-19 CNS. Further, the TGI with SW-620 colon and in the assay with U251 CNS was over 100 µM in each case.

As for `COc1cc2ccc(/C=C\[N+](=O)[O-])cc2cc1OC`, the TGI in the assay on A498 renal is 29.1 µM; in the assay on ACHN renal, 3.2 µM; in the assay with HCT-116 colon, 5.16 µM; with MDA-MB-435, 7.63 µM; with OVCAR-5 ovarian, 30.3 µM; with SNB-19 CNS, 27.7 µM. For the same molecule, the values for the TGI in the assay on SW-620 colon and in the assay on U251 CNS were over 24.6 µM and 9.87 µM, respectively.

For `COC(=O)C1(C)CCC(c2ccc(C)cc2)=C(CC(=O)O)C1` (configuration not stated), the TGI in the assay on A498 renal, in the assay with ACHN renal, in the assay on HCT-116 colon, in the assay with MDA-MB-435, in the assay with OVCAR-5 ovarian and in the assay on SNB-19 CNS was over 100 µM throughout. For the same molecule, the TGI in the assay on SW-620 colon and with U251 CNS was over 100 µM in each case.

Take `CCN(CC)CCCC(C)Nc1ccnc2cc(Oc3ccccc3)ccc12` (configuration not stated): the TGI with A498 renal is 7.85 µM and 28.5 µM; in the assay on ACHN renal, 26.2 µM and 29 µM; in the assay on HCT-116 colon, 13.1 µM and 21.9 µM; with MDA-MB-435, 6.21 µM and 7.27 µM; with OVCAR-5 ovarian, 41.3 µM and 44.1 µM; in the assay with SNB-19 CNS it was 66.3 µM and > 100 µM. For the same molecule, the TGI in the assay on SW-620 colon was 14.3 µM and 25.9 µM; with U251 CNS, 9.31 µM and 19.8 µM. Also, the GI50 in the assay with ACHN renal was 5.61 µM and 6.72 µM; with HCT-116 colon, 2.59 µM and 3.03 µM; in the assay on MDA-MB-435, 2.38 µM; in the assay on OVCAR-5 ovarian it was 13.1 µM and 13.4 µM; in the assay with SNB-19 CNS, 15.8 µM and 25.4 µM; with SW-620 colon, 3.36 µM and 5.53 µM. For the same molecule, the GI50 with U251 CNS is 2.71 µM and 5.51 µM.
